Data from patent publication US4342762A, “Basic ethers and pharmaceutical compositions containing the same” (Egyt Gyogyszervegyeszeti Gyar, priority 1979, dated 1982).

Columns and labels:
[1] = acute oral toxicity, graphic method of Litchfield-Wilcoxon, 4 days observation; details: mouse, in vivo
Protocol: The analgesic effect of the new compounds according to the invention was determined by the method of Wirth et al. (Wirth, W., Gosswald, R., Horlein. K., Risse, Kl. H., Kreiskott, H.: Arch. Int. Pharmacodyn. 115, 1; (1958)). 0.4 ml of 0.5% acetic acid was administered i.p. to white mice, and the characteristic "writhing" reactions were counted after 5 minutes. […] The results are given in Table I. The toxicity data determined on white mice of both sexes weighing 18-24 g belonging to the strain CFLP are also given. Administration was effected with an oral dose of 20 ml/kg. After treatment the animals were kept under observation for 4 days. The toxicity data (LD50 mg/kg) were determined by the graphic method of Litchfield-Wilcoxon [Litchfield, J.T., Wilcoxon, E. W., J Pharmacol. Exp. Therap. 96, 99; (1949)].

white mice [2] = test: analgesic effect, inhibition of acetic acid "writhing" reactions (Wirth et al.); type: in vivo; details: for ED50: Mus musculus, read-out: Analgesic effect ED50; for Analgesic effect Therap.index: therapeutic index
Protocol: The analgesic effect of the new compounds according to the invention was determined by the method of Wirth et al. (Wirth, W., Gosswald, R., Horlein. K., Risse, Kl. H., Kreiskott, H.: Arch. Int. Pharmacodyn. 115, 1; (1958)). 0.4 ml of 0.5% acetic acid was administered i.p. to white mice, and the characteristic "writhing" reactions were counted after 5 minutes. The compounds to be tested had been orally administered an hour before the administration of the acetic acid. The activity is expressed as a percentage of the inhibition referred to the data observed on the control group. The results are given in Table I. The toxicity data determined on white mice of both sexes weighing 18-24 g belonging to the strain CFLP are also given. Administration was effected with an oral dose of 20 ml/kg. After treatment the animals were kept under observation for 4 days. The toxicity data (LD50 mg/kg) were determined by the graphic method of Litchfield-Wilcoxon [Litchfield, J.T., Wilcoxon, E. W., J Pharmacol. Exp. Therap. 96, 99; (1949)].

mice = test: potentiating of hexobarbital-narcosis (Kaergaard); type: in vivo; details: for ED50: Mus musculus, iv, 40 mg/kg hexobarbital i.v., positive: sleeping period at least 2.5 times control; for Potentiating of narcosis Th.I.: therapeutic index
Protocol: (§1) The effect on the inhibition of the oriental activity (inhibition of the motility) was investigated on white mice in a Dews apparatus applied with 8 canals by the method of Borsy [Borsy, J., Csanyi, E., Lazar, I., Arc. Int. Pharmacodyn. 124, 1-2 (1960)]. After an oral pretreatment of 30 minutes the number of light-interruptions due to the movements of groups consisting of 3-3 mice was registered. The observation lasted for 30 minutes. The effect of the compounds exerted on the duration of hexobarbital-narcosis was tested by the method of Kaergaard [Kaergaard, N. C., Magnussen, M. P., Kampmann, E., Frey, H. H., Arc. Int. Pharmacodyn. 2, 170; (1967)]. Groups of animals consisting of 6-6 mice were treated.

white mice [3] = test: inhibition of maximal electroshock (MES) (Swinyard et al.); type: in vivo; details: for ED50: Mus musculus, oral, 1 hour before electroshock 50 Hz, 45 mA, 0.4 sec, total inhibition of tonic extensor convulsion; for Inhibition of MES Th. I.: therapeutic index
Protocol: (§2) The antiepileptic effect was investigated on white mice, after oral administration. The inhibition of maximal electroshock (MES) was determined by the method of Swinyard et al. [Swinyard et al. J. Pharmacol. Exp. Ther. 106, 319-330 (1952)]. White mice weighing 20-25 g were subjected to electric shock through corneal electrodes (Parameters: 50 Hz, 45 mA, 0.4 sec.). The total inhibition of the tonic extensor convulsion was considered as criterion of the anti-convulsive effect. The test-substance had been orally administered one hour before the electroshock. The inhibition of pentetrazole convulsion was determined on white mice by the modified method of Banziger and Hane [Banziger, R., Hane, L.D. Arch. Int. Pharmacodyn. 167, 245-249; (1967)]. I." stands for "therapeutic index."

white mice [4] = test: inhibition of pentetrazole convulsion (modified Banziger and Hane); type: in vivo; details: for ED50: Mus musculus, oral; for Inhibition of pentetrazole convulsion Th. I.: therapeutic index
Protocol: as §2

white mice [5] = test: inhibition of motility, Dews apparatus (Borsy); type: in vivo; details: for ED50: Mus musculus, oral pretreatment 30 minutes, observation 30 minutes; for Inhibition of motility Th.I.: therapeutic index
Protocol: as §1

white mice [6] = test: inhibition of nicotine-lethality (Stone); type: in vivo; details: for ED50: Mus musculus, oral, 1 hour before 1.4 mg/kg nicotine
Protocol: The inhibition of nicotine-lethality was determined on white mice by the method of Stone [Stone, C. A., Mecklenburg, K. L., Torchiana, M. L., Arch. Int. Pharmacodyn.

[7] = oral, 20 ml/kg, both sexes 18-24 g, 4 days observation
[8] = oral, 1 hour before i.p. 0.4 ml 0.5% acetic acid

SMILES	LD50 at 96 h [1, 7] [mg/kg]	ED50 (white mice [2]; [8]) [mg/kg]	Analgesic effect Therap.index (white mice [2])	ED50 (mice) [mg/kg]	Potentiating of narcosis Th.I. (mice)	ED50 (white mice [3]) [mg/kg]	Inhibition of MES Th. I. (white mice [3])	ED50 (white mice [4]) [mg/kg]	Inhibition of pentetrazole convulsion Th. I. (white mice [4])	ED50 (white mice [5]) [mg/kg]	Inhibition of motility Th.I. (white mice [5])	ED50 (white mice [2]; po) [mg/kg]	ED50 (white mice [6]) [mg/kg]	Inhibition of nicotine-lethality Therapeutic index (white mice [6])	LD50 at 96 h ([1]; po) [mg/kg]
CC(C)N(CCOC1(Cc2ccccc2)CC2CCC1(C)C2(C)C)C(C)C (racemic) [Example 3, (±)-2-benzyl-2-(2'-diisopropylaminoethoxy)-1,7,7-trimethyl-bicyclo(2,2,1) heptane]	1250	120	10.4	120	10.4										
CC1(C)C2CCC1(C)C(Cc1ccccc1)(OCCCN1CCN(Cc3ccccc3)CC1)C2 (racemic) [Example 4]	2000	200	10.0												
CC(C)N(CCCOC1(Cc2ccccc2)CC2CCC1(C)C2(C)C)C(C)C (racemic) [Example 5, (±)-2-benzyl-2-(3'-diisopropylaminopropoxy)-1,7,7-trimethyl-bicyclo(2,2,1)heptane]	2000	100	20.0	120	16.7	380	5.3	140	14.3	190	10.5				
CCN(CC)CCCOC1(Cc2ccccc2)CC2CCC1(C)C2(C)C (racemic) [Example 6, (±)-2-benzyl-2-(3'-diethylaminopropoxy)-1,7,7-trimethyl-bicyclo(2,2,1)heptane]	2000	50	40.0	80	25.0	120	16.7	54	37.0	100	20.0				
CN(C)CCCOC1(Cc2ccc(Cl)cc2)CC2CCC1(C)C2(C)C (racemic) [Example 11, (±)-2-(p-chloro-benzyl)-2-(3'-dimethylaminopropoxy)-1,7,7-trimethyl-bicyclo(2,2,1)heptane]	1500	75	20.0	130	11.5					130	11.5				
CCN(CC)CCOC1(Cc2ccc(Cl)cc2)CC2CCC1(C)C2(C)C (racemic) [Example 12]	2000	100	20.0	200	10.0	72	27.7	110	18.2						
CN(C)CCCOC1(c2ccccc2)CC2CCC1(C)C2(C)C (racemic) [Example 14, (±)-2-(3'-dimethylaminopropoxy)-2-phenyl-1,7,7-trimethyl-bicyclo(2,2,1)heptane]	1000	50	20.0	64	15.6					38	26.3				
CN(C)CCOC1(c2ccccc2)CC2CCC1(C)C2(C)C (racemic) [Example 15, (±)-2-(2'-dimethylaminoethoxy)-2-phenyl-1,7,7-trimethyl-bicyclo(2,2,1)heptane]	900		39.0	40	22.5							23	30	30.0	
CCN(CC)CCCOC1(c2ccccc2)CC2CCC1(C)C2(C)C (racemic) [Example 16, (±)-2-(3-diethylaminopropoxy)-2-phenyl-1,7,7-trimethyl-bicyclo(2,2,1)heptane]	700	70	10.0	20	35.0	30	23.3	60	11.7						
CCN(CC)CCOC1(c2cccs2)CC2CCC1(C)C2(C)C (racemic) [Example 17, (±)-2-(2'-diethylaminoethoxy)-2-(2"-thienyl)-1,7,7-trimethyl-bicyclo(2,2,1)heptane]	980		19.6					60	16.3			50	50		
CN(C)CCCOC1(c2cccs2)CC2CCC1(C)C2(C)C (racemic) [Example 18, (±)-2-(3'-dimethylaminopropoxy)-2-(2"-thienyl)-1,7,7-trimethyl-bicyclo(2,2,1)heptane]		140	10.0												1400
CCN(CC)CCCOC1(c2cccs2)CC2CCC1(C)C2(C)C (racemic) [Example 19, (±)-2-(3'-diethylaminopropoxy)-2-(2"-thienyl)-1,7,7-trimethyl-bicyclo(2,2,1)heptane]		120	8.3	50	20.0										1000
COc1ccc(C2(OCCCN(C)C)CC3CCC2(C)C3(C)C)cc1 (racemic) [Example 22, (±)-2-(p-methoxyphenyl)-2-(3'-dimethylaminopropoxy)-1,7,7-trimethyl-bicyclo(2,2,1)heptane]	1000	72	13.8	80	12.5			96	10.4	100	10.0				
CC(COC1(c2ccc(Cl)cc2)CC2CCC1(C)C2(C)C)CN(C)C (single isomer, unassigned; (+)) [Example 13, (+)-2-[(3'-dimethylamino-2'-methyl)-propoxy]-2-(p-chloro-phenyl)-1,7,7-trimethyl-bicyclo(2,2,1)heptane]		200	10.0			140	14.3	140	14.3	170	11.8				2000
CC(=O)Nc1ccc(O)cc1 [Paracetamole, N-(4-Hydroxyphenyl)-acetamide, reference compound]		180													
OC(CCN1CCCCC1)(c1ccccc1)C1CCCCC1 (stereo not drawn) [Trihexyphenidyl, α-Cyclohexyl-α-phenyl-1-piperidine-propanol, reference compound]													40	9.13	
CN1C(=O)OC(C)(C)C1=O [Trimethadion, 3,5,5-Trimethyl-2,4-oxazolidinedione, reference compound]						4.9	4.3	400	5.3						
